Results published in ChEMBL document CHEMBL1152560, “Substituted 2-arylbenzothiazoles as kinase inhibitors: hit-to-lead optimization” (Bioorg Med Chem, 2009).

Experiments:
[1] = target: T1, Serine/threonine-protein kinase DCLK2 (Homo sapiens) (UniProt Q8N568); assay: Residual activity of DCAMKL2 at 0.1 uM by microplate scintillation counting
T1 sequence (whole entry): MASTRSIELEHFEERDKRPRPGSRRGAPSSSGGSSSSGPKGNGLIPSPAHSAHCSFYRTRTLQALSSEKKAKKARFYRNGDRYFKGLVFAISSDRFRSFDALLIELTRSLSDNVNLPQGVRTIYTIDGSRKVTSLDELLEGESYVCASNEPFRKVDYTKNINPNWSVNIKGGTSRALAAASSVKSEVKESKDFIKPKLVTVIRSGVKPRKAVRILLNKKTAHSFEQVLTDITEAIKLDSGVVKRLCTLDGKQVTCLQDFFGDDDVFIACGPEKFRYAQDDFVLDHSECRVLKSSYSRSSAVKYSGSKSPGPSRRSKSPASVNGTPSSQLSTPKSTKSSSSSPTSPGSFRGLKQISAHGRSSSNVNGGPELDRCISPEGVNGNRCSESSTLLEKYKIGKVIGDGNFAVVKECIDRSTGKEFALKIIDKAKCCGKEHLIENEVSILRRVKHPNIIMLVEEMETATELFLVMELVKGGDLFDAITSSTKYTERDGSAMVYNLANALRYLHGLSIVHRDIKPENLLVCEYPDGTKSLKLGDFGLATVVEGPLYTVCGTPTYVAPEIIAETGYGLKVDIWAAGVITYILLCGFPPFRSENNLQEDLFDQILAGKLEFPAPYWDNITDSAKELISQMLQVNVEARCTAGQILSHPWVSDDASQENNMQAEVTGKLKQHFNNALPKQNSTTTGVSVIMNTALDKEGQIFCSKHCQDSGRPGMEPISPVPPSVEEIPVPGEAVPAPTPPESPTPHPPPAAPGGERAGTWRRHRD

[2] = target: T2, Serine/threonine-protein kinase D2 (Homo sapiens) (UniProt Q9BZL6); assay: Residual activity of PRKD2 at 1 uM by microplate scintillation counting
T2 sequence (whole entry): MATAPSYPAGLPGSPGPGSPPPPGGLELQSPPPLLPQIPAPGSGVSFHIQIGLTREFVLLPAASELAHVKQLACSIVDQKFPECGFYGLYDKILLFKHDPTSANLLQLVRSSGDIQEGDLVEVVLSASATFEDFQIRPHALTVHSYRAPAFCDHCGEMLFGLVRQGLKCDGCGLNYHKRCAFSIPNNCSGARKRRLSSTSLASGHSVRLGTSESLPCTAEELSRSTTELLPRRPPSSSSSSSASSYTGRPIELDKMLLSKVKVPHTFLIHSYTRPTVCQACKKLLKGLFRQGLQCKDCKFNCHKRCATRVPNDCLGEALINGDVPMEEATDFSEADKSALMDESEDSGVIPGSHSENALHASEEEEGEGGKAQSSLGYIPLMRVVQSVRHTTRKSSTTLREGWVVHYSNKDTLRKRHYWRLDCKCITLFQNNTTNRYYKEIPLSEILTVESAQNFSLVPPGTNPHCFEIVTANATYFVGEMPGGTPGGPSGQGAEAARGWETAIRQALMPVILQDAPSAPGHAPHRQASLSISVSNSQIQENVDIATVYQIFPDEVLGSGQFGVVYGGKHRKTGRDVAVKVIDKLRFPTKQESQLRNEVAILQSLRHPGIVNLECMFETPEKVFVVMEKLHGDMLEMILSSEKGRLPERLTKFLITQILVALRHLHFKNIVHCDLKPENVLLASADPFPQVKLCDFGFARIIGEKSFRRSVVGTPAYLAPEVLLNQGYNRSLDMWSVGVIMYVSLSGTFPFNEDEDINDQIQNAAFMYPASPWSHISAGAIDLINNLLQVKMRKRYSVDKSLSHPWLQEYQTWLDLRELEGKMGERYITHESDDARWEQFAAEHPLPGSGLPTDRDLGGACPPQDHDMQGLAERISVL

[3] = target: T3, Serine/threonine-protein kinase Sgk1 (Homo sapiens) (UniProt O00141); assay: Residual activity of SGK1 at 1 uM by microplate scintillation counting
T3 sequence (whole entry): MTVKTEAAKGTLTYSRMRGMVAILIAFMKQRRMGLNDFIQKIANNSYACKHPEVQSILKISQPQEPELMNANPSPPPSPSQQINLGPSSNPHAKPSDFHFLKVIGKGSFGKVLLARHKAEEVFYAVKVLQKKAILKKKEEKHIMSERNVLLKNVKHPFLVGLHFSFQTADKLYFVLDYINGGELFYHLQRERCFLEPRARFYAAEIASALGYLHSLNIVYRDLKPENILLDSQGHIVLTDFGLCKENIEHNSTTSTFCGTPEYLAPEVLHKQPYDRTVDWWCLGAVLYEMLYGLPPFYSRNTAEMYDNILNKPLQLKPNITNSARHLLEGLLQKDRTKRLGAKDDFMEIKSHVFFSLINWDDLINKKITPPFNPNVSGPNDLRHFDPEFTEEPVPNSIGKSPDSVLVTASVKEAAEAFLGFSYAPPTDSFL

[4] = target: Casein kinase I isoform delta (Homo sapiens) (UniProt P48730); assay: Residual activity of CK1delta at 10 uM by microplate scintillation counting
Casein kinase I isoform delta (Homo sapiens), sequence (P48730 whole entry, looked up, canonical isoform): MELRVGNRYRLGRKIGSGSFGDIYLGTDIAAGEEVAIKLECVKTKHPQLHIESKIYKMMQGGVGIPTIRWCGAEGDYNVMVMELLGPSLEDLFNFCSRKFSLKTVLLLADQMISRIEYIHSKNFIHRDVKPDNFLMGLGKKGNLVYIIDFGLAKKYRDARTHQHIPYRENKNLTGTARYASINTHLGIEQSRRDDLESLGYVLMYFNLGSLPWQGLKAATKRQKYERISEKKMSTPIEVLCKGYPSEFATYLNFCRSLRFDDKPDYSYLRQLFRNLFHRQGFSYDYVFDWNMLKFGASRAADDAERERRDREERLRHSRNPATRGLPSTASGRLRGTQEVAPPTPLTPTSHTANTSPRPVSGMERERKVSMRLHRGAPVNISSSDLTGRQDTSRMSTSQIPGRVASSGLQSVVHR

[5] = target: Activin receptor type-1-like (Homo sapiens) (UniProt P37023); assay: Residual activity of ACV-RL1 at 1 uM by microplate scintillation counting
Activin receptor type-1-like (Homo sapiens), sequence (P37023 whole entry): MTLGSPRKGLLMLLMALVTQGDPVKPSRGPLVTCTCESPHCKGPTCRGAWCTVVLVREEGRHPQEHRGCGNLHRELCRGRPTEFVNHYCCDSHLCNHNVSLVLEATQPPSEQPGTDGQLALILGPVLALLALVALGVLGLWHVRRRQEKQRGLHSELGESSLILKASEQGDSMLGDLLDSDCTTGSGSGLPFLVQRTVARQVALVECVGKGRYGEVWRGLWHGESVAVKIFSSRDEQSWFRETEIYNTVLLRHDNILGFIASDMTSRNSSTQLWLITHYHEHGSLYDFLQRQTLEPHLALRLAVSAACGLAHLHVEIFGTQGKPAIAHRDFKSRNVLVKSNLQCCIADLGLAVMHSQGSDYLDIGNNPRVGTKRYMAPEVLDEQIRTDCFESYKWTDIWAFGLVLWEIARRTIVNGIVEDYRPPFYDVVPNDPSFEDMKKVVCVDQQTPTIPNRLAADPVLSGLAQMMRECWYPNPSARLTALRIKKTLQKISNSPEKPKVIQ

residual activity [1] [%]	residual activity [2] [%]	residual activity [3] [%]	residual activity [4] [%]	residual activity [5] [%]	SMILES
87	94	99	133	92	COc1cc2c(Oc3ccc(-c4nc5ccccc5s4)cc3)ncnc2cc1OCCCN1CCCC1
66	82	86	156	78	COc1cc2c(Oc3ccc(-c4nc5ccccc5s4)cc3)ncnc2cc1OCCCN1CCN(C)CC1
80	90	96	149	92	COc1cc2c(Oc3ccc(-c4nc5ccccc5s4)cc3F)ncnc2cc1OCCCN1CCN(C)CC1
